Measurements as given in patent US12558428B2, “Heterobifunctional compounds and their use in treating disease” (Halda Therapeutics OpCo, Inc., priority 2024, dated 2026).
Read-outs that look alike come from different tables or passages of the source.

Key:
Assay type in all cases: cell-based
[1] = tested on: T-Rex 293 cells having increased expression of estrogen receptor alpha protein; assay: Cellular growth inhibition assay, T-Rex 293 cells, (+) doxycycline; conditions: T-REx-293, 72 h, 72 hours
Experimental: (§1) Exemplary compounds were tested for the ability to inhibit the proliferation of the following types of cells: (i) a T-Rex 293 cell line having increased expression of estrogen receptor alpha protein from exposure to doxycycline and (ii) a T-Rex 293 cell line lacking increased expression of estrogen receptor alpha protein.
(§2) The following types of cells were prepared for this experiment: (i) a T-Rex 293 cell line having increased expression of estrogen receptor alpha protein from exposure to doxycycline and (ii) a T-Rex 293 cell line lacking increased expression of estrogen receptor alpha protein. The ability of the test compounds to inhibit proliferation of the foregoing cell types was evaluated according to the procedures set forth below.
(§3) The doxycycline-inducible estrogen receptor alpha protein expressing cell line was established using the following protocol: T-Rex 293 cells were purchased from Invitrogen (Cat #R71007) and transfected using Lipofectamine 2000 with the wild-type estrogen receptor alpha protein sequence cloned into the pcDNA4/TO vector. Transfected cells were selected using 400 μg/mL Zeocin (Invitrogen Cat #R25001). Following selection, single clones were raised and maintained in Dulbecco's Modified Eagle Medium (DMEM) supplemented with 10% w/w Tetracycline-free fetal bovine serum (FBS) and 250 μg/mL Zeocin. Clones were analyzed for expression of estrogen receptor alpha protein in the presence and absence of 3 ng/mL doxycycline (Sigma Cat #D9891), and a single doxycycline-inducible clone (hereinafter “SC”) was selected for use in downstream assays.
(§4) The SC cells were seeded on poly-D-lysine coated, black clear-bottom 384-well plates at 2500/well, in 25 μL Phenol Red Free Dulbecco's Modified Eagle Medium (DMEM) supplemented with 10% w/w charcoal-dextran treated fetal bovine serum (FBS) and 1% w/w pen-strep, with or without 3 ng/mL doxycycline. Pen-Strep is a commercially available mixture of penicillin G and streptomycin, which is used in mammalian cell culture media to prevent bacterial contamination. Phenol Red Free Dulbecco's Modified Eagle Medium (DMEM) supplemented with 10% w/w charcoal-dextran treated fetal bovine serum (FBS) and 1% w/w pen-strep, with or without 3 ng/mL doxycycline is herein referred to as Treatment Medium. Following seeding of cells in the plates, the plates were spun at 300×g for 30 seconds, then equilibrated to room temperature for 30 minutes, and then deposited in a humidified tissue culture incubator maintained at 37° C. with 5% CO2.
(§5) At 24 hours after seeding of the cells, dilutions of test compound were prepared in DMSO and dissolved in Treatment Medium, to achieve a final DMSO concentration of 0.5% w/w, thereby providing the Test Compound Solution. A 25 μL aliquot of the Test Compound Solution was added to cells in the well plates. An equal volume of a solution containing DMSO and Treatment Medium was used as a negative control. Following treatment of cells with Test Compound Solution or said equal volume of a solution containing DMSO and Treatment Medium, the plates were spun at 300×g for 30 seconds, and then left in an incubator for 72 hours.
(§6) At the end of the treatment duration, cell viability was quantified with CellTiter-Glo 2.0 reagent (Promega Cat #G9243). For this purpose, plates were equilibrated to room temperature for 30 minutes, and then 25 μL of CellTiter-Glo 2.0 reagent was added to cells in the plate wells. Plates were then agitated on a shaker for two minutes at 500 rpm and subsequently incubated at room temperature for 10 minutes. Following incubation, the plates were spun at 3000×g for 30 seconds, then sealed with an optical adhesive cover, and luminescence readings were measured with an EnVision Plate Reader (Perkin Elmer).
(§7) Data was normalized using zero luminescence for baseline. […]

[2] = tested on: T-Rex 293 cells lacking increased expression of estrogen receptor alpha protein; assay: Cellular growth inhibition assay, T-Rex 293 cells, (−) doxycycline; conditions: T-REx-293, 72 h, 72 hours
Experimental: as §1, §2, §3, §4, §5, §6, §7

[3] = tested on: MCF7 cells (ATCC #HTB-22); assay: Cellular growth inhibition assay, MCF7 cells purchased from ATCC; conditions: Homo sapiens, MCF7, 144 h, Table 8-A; MCF7 cells purchased from ATCC; six days; CellTiter-Glo; read-out: GI50
Experimental: Exemplary compounds were tested for the ability to inhibit the proliferation of MCF7 cells.
MCF7 cells (ATCC #HTB-22 or ECACC #86012803) were cultured in RPMI 1640 medium supplemented with 10% heat-inactivated fetal bovine serum, 1% pen-strep, and 0.2 U/ml insulin. Cells were seeded in 25 μL of RPMI 1640 medium supplemented with 10% heat-inactivated fetal bovine serum, 1% pen-strep, 0.2 U/ml insulin in poly-D-lysine treated, black clear-bottom 384-well plates at 225 cells/well for MCF7 cells purchased from ECACC or 1,500 cells/well for MCF7 cells purchased from ATCC. Following seeding, plates were spun at 300×g for 30 seconds and cultured at 37° C. with 5% CO2 in a humidified tissue culture incubator.
At 24 hours after seeding, compounds were titrated in 100% DMSO and diluted in RPMI 1640 medium supplemented with 10% heat-inactivate fetal bovine serum, 1% pen-strep, and 0.2 U/ml insulin. A 25 μL aliquot of the compound/media mixture was added to cells, bringing the total volume in each well to 50 μL. An equal volume of DMSO without compound was used as a negative control. After treatment, plates were spun at 300×g for 30 seconds, then cultured at 37° C. with 5% CO2 for six days in a humidified tissue culture incubator.
On Day 6 of treatment, cell viability was quantified with CellTiter-Glo 2.0 reagent (Promega). Plates were equilibrated to room temperature for 30 minutes, then 25 μL of CellTiter-Glo 2.0 reagent was added to cells, bringing the total volume in each well to 75 μL. After reagent was added, plates were mixed on a shaker for two minutes at 500 rpm and then incubated at room temperature for 10 minutes. Following incubation, plates were spun at 3,000×g for 30 seconds, sealed with an optical adhesive cover, and luminescence readings were measured with an EnVision Plate Reader.
Data was normalized to 0 luminescence for baseline. A four-parameter, non-linear regression curve fit was applied to dose-response data in GraphPad Prism data analysis software to determine the half maximal growth inhibitory concentration (GI50) for each compound.

[4] = T-Rex 293 cells with doxycycline-induced ERα expression, CellTiter-Glo 2.0, read-out: (+) Dox TRex ERa (GI50)
[5] = T-Rex 293 cells without doxycycline, CellTiter-Glo 2.0, read-out: (−) Dox TRex ERa (GI50)
[6] = Table 7-A, T-Rex 293 cells with doxycycline (increased ERα expression), CellTiter-Glo, read-out: (+) Dox GI50
[7] = Table 7-A, T-Rex 293 cells without doxycycline (lacking increased ERα expression), CellTiter-Glo, read-out: (−) Dox GI50

| SMILES | GI50 [1, 4] | GI50 [2, 5] | GI50 [3] | GI50 [1, 6] | GI50 [2, 7] |
| --- | --- | --- | --- | --- | --- |
| CC1=C(c2c(F)cc(OCCOCCOc3ccc(C4=N[C@@H](C)c5nnc(C)n5-c5sc(C)c(C)c54)cc3)cc2F)C(c2ccccc2)Oc2ccc(O)cc21 (single isomer, unassigned) [I-39] | 50 to 500 nM | 500 to 2500 nM | 50 to 500 nM | – | – |
| Cc1sc2c(c1C)C(c1ccc(N3CCC(O)(CN4CCC(c5cc(F)c([C@H]6c7ccc(O)cc7CC[C@H]6c6ccc(F)cc6)c(F)c5)CC4)CC3)cc1)=N[C@@H](C)c1nnc(C)n1-2 (single isomer, unassigned) [III-244] | – | – | 50 to 500 nM | > 2500 nM | > 2500 nM |
| Cc1sc2c(c1C)C(c1ccc(N3CCC(O)(CN4CCC(c5cc(F)c([C@@H]6c7ccc(O)cc7CC[C@@H]6c6ccc(F)cc6)c(F)c5)CC4)CC3)cc1)=N[C@@H](C)c1nnc(C)n1-2 (single isomer, unassigned) [III-245] | – | – | < 50 nM | < 50 nM | 500 to 2500 nM |
| COc1cc(N2CCN(CC3(O)CCN(c4ccc(C5=N[C@@H](C)c6nnc(C)n6-c6sc(C)c(C)c65)cc4)CC3)CC2)ccc1[C@H]1c2ccc(O)cc2CC[C@H]1c1ccc(F)cc1 (single isomer, unassigned) [III-275] | – | – | 50 to 500 nM | 50 to 500 nM | 50 to 500 nM |
| COc1cc(N2CCN(CC3(O)CCN(c4ccc(C5=N[C@@H](C)c6nnc(C)n6-c6sc(C)c(C)c65)cc4)CC3)CC2)ccc1[C@@H]1c2ccc(O)cc2CC[C@@H]1c1ccc(F)cc1 (single isomer, unassigned) [III-276] | – | – | < 50 nM | < 50 nM | 500 to 2500 nM |
| COc1cc(N2CCN(CC3(O)CCN(c4ccc(C5=N[C@@H](C)c6nnc(C)n6-c6sc(C)c(C)c65)cc4)CC3)CC2)ccc1[C@@H]1c2ccc(O)cc2CC[C@@H]1c1ccccc1F (single isomer, unassigned) [III-307] | – | – | < 50 nM | < 50 nM | 500 to 2500 nM |
| COc1cc(N2CCN(CC3(O)CCN(c4ccc(C5=N[C@@H](C)c6nnc(C)n6-c6sc(C)c(C)c65)cc4)CC3)CC2)ccc1[C@H]1c2ccc(O)cc2CC[C@H]1c1ccccc1F (single isomer, unassigned) [III-308] | – | – | 50 to 500 nM | 50 to 500 nM | 50 to 500 nM |
| COc1cc(N2CCN(CC3(O)CCN(c4ccc(C5=N[C@@H](C)c6nnc(C)n6-c6sc(C)c(C)c65)cc4)CC3)CC2)c(F)cc1[C@@H]1c2ccc(O)cc2CC[C@@H]1c1ccccc1 (single isomer, unassigned) [III-311] | – | – | < 50 nM | < 50 nM | 500 to 2500 nM |
| COc1cc(N2CCN(CC3(O)CCN(c4ccc(C5=N[C@@H](C)c6nnc(C)n6-c6sc(C)c(C)c65)cc4)CC3)CC2)c(F)cc1[C@H]1c2ccc(O)cc2CC[C@H]1c1ccccc1 (single isomer, unassigned) [III-312] | – | – | 50 to 500 nM | 50 to 500 nM | 50 to 500 nM |
| COc1cc(N2CCN(CC3(O)CCN(c4ccc(C5=N[C@@H](C)c6nnc(C)n6-c6sc(C)c(C)c65)c(F)c4)CC3)CC2)ccc1[C@H]1c2ccc(O)cc2CC[C@H]1c1cccc(F)c1 (single isomer, unassigned) [III-343] | – | – | < 50 nM | 50 to 500 nM | 50 to 500 nM |
| COc1cc(N2CCN(CC3(O)CCN(c4ccc(C5=N[C@@H](C)c6nnc(C)n6-c6sc(C)c(C)c65)c(F)c4)CC3)CC2)ccc1[C@@H]1c2ccc(O)cc2CC[C@@H]1c1cccc(F)c1 (single isomer, unassigned) [III-344] | – | – | < 50 nM | < 50 nM | 500 to 2500 nM |
| CCN(CCCCNC(=O)C[C@@H]1N=C(c2ccc(Cl)cc2)c2c(sc(C)c2C)-n2c(C)nnc21)CCOc1ccc(C(=O)c2c(-c3ccc(O)cc3)sc3cc(O)ccc23)cc1 [I-1, (S)-2-(4-(4-chlorophenyl)-2,3,9-trimethyl-6H-thieno[3,2-f][1,2,4]triazolo[4,3-a][1,4]diazepin-6-yl)-N-(4-(ethyl(2-(4-(6-hydroxy-2-(4-hydroxyphenyl)benzo[b]thiophene-3-carbonyl)phenoxy)ethyl)amino)butyl) acetamide] | 50 to 500 nM | 50 to 500 nM | 50 to 500 nM | – | – |
| CCN(CCOCCOCCOCCOCCNC(=O)C[C@@H]1N=C(c2ccc(Cl)cc2)c2c(sc(C)c2C)-n2c(C)nnc21)CCOc1ccc(C(=O)c2c(-c3ccc(O)cc3)sc3cc(O)ccc23)cc1 [I-4, (S)-2-(4-(4-chlorophenyl)-2,3,9-trimethyl-6H-thieno[3,2-f][1,2,4]triazolo[4,3-a][1,4]diazepin-6-yl)-N-(3-ethyl-1-(4-(6-hydroxy-2-(4-hydroxyphenyl)benzo[b]thiophene-3-carbonyl)phenoxy)-6,9,12,15-tetraoxa-3-azaheptadecan-17-yl) acetamide] | < 50 nM | 500 to 2500 nM | 50 to 500 nM | – | – |
| CCN(CCOCCOCCOCCOCCOCCOCCNC(=O)C[C@@H]1N=C(c2ccc(Cl)cc2)c2c(sc(C)c2C)-n2c(C)nnc21)CCOc1ccc(C(=O)c2c(-c3ccc(O)cc3)sc3cc(O)ccc23)cc1 [I-5, (S)-2-(4-(4-chlorophenyl)-2,3,9-trimethyl-6H-thieno[3,2-f][1,2,4]triazolo[4,3-a][1,4]diazepin-6-yl)-N-(3-ethyl-1-(4-(6-hydroxy-2-(4-hydroxyphenyl)benzo[b]thiophene-3-carbonyl)phenoxy)-6,9,12,15,18,21-hexaoxa-3-azatricosan-23-yl) acetamide] | < 50 nM | 500 to 2500 nM | 50 to 500 nM | – | – |
